Article PMC7956625, “Optimization and Anti-Cancer Properties of Fluoromethylketones as Covalent Inhibitors for Ubiquitin C-Terminal Hydrolase L1” (Molecules, 2021)
“Also recorded” adds a separate entry of the source. Where two headings read alike, the source gives them in different places. Where a SMILES comes first, the peptide text is derived from it. The star is where a group is joined. Cbz = O=C(OCc1ccccc1)*; CH2F = FC*

Legend:
[1] = system: SW1271 cells; test: SW1271 cell viability assay; format: cell-based; conditions: 100 µM, 24 h
Experimental: UCHL1 is a key promoter of cell invasion and metastasis in small cell lung cancer but not necessarily required for cell viability or proliferation. Thus, we chose to assess the efficacy of targeting UCHL1 using the SW1271 small cell lung cancer cell line. […] The Ub-ABP assay was used to confirm on target engagement of UCHL1 within these cells.
Luciferase-constructed cancer cells were seeded in 96-well plates at 10,000 cells/well with the compounds at the indicated concentrations. DMSO was used as vehicle control. Luminescence readings were acquired after adding 1% D-luciferin (GoldBio, St. Louis, MO, USA) after 24 h. Cell viability was determined by the ratio of luminescence reading compared to the one at 0 h, and normalized to vehicle control.

[2] = system: SW1271 cells; test: Scratch wound healing cell migration assay; format: cell-based; conditions: 100 µM, 24 h
Experimental: The same experiments were performed on wild type SW1271 cells treated with fluoromethylketone analogs. Molecules 1 and 34 were first assessed for their effect on cell viability at 100 µM to determine if any observed reduction in cell viability may influence the migration assays (Figure 9E). […] Due to the slow reactive nature of the inhibitor and the modest potency the anti-migratory efficacy of these analogs may be improved with longer duration of treatment or increasing the frequency of treatment. Further studies are underway to elucidate the role UCHL1 plays in the migratory cellular pathways using both genetic depletion and inhibitor approaches.
Wild-type or shRNA treated UCHL1 knockdown SW1271 cells were seeded in 12-well plates at 1 million cells/well. The cells were cultured overnight to grow as a confluent single layer. The cross-style wounds were created using pipet tips to scratch on the single layer of cells. The compounds were prepared in full growth media at the desired concentrations and added after the wounds were created. DMSO was used as the vehicle control. Photos of the wounds were captured immediately after adding treatments at 0 h. Photos of the wounds were captured at 0 and 24 h. The areas of cross-style wounds were quantified using Image J 1.52a software. The migration rate (%) was defined as the percentage of area at each timepoint compared to the one at 0 h.

[3] = molecular target: T1, UCHL1 (Homo sapiens, UniProt P09936); test: Fluorescence-based Ub-Rho deubiquitinase activity assay; format: biochemical; parameters: made in house; conditions: for IC50: 3 h of preincubation with UCHL1, technical triplicate, averages
T1 sequence (P09936 1-223): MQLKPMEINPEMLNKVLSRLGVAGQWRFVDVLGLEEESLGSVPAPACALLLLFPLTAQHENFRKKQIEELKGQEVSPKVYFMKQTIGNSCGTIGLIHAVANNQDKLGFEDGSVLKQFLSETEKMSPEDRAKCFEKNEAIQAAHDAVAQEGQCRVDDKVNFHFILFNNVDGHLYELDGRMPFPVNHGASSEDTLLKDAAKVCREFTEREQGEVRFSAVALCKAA
Experimental: Thus, a 3-h preincubation period was selected for the structure-activity relationship (SAR) comparison of all analogs to ensure full reaction time and for consistent comparison of activity against UCHL1 within the scaffold. […] A 10 mM stock solution was made for each inhibitor in DMSO, then a dilution of 600 µM in reaction buffer was made followed eight by 1:1 serial dilutions. […] These were allowed to incubate, while sealed, for the 3 h at room temperature. […] The % activity was plotted as a function of inhibitor concentration and the data was fitted with non-linear regression analysis to calculate the IC50 values. Errors are reported as the 95% confidence interval calculated from experiments collected in technical triplicate.

[4] = molecular target: T1, UCHL1; test: Time-dependent inhibitor analysis (kinact/KI); format: biochemical; parameters: made in house
Experimental: Irreversible covalent inhibitors may be further characterized by determining the reversible binding constant (KI) as well as the rate of the covalent bond formation under saturating conditions (kinact). By determining the IC50 over the course of various timepoints, the pseudo first-order rate constant (kobs) could be calculated. […] The % activity of each inhibitor concentration was the plotted vs. time of pre-incubation and the slope of this plot is the pseudo first-order rate constant (kobs) for inhibition at each concentration. The kobs was plotted as a function of inhibitor concentration and then fit to the equation Y = kinactX/(KI + X) to calculate kinact, KI and kinact/KI as described by Resnick et al..

[5] = molecular target: T2, UCHL3 (Homo sapiens, UniProt P15374); test: Fluorescence-based Ub-Rho deubiquitinase activity assay; format: biochemical; parameters: His (N); made in house; conditions: top concentration of 200 µM; Figure S1
T2 sequence (P15374 1-230): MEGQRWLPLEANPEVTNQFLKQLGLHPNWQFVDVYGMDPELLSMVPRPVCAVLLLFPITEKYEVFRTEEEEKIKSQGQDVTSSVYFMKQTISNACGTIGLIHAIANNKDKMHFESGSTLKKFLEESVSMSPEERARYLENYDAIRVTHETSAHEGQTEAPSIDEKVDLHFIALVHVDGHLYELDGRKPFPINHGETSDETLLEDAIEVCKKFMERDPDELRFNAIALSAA
Experimental: The in vitro inhibition of UCHL1 was determined by monitoring the cleavage of rhodamine 110 from substrate Rhodamine110-ubiquitin (Ub-Rho). […]. Thus, a 3-h preincubation period was selected for the structure-activity relationship (SAR) comparison of all analogs to ensure full reaction time and for consistent comparison of activity against UCHL1 within the scaffold. […]. The assay was performed in black 384-well plates (Catalog #12566624, Fisher, Waltham, MA, USA). DUB stock solutions were diluted in reaction buffer (50 mm Tris pH 7.6, 0.5 mm EDTA, 5 mm DTT, 0.1 % (w/v) BSA) to a concentration of 2.5 nM for UCHL1 or 0.025 nM for UCHL3. […] Plates were read immediately and fluorescence of cleaved Rhodamine 110 fluorophore was monitored at λex = 485 nm, λem = 535 nm continuously for 20 min on a Synergy Neo2 instrument (BioTek, Winooski, VT, USA) The raw data was loaded into GraphPad Prism 8 (GraphPad Software, San Diego, CA, USA; www.graphpad.com, accessed on 12 January 2021) and the slope of the linear portion of the fluorescence vs. time curves was calculation for each inhibitor concentration and % activity of the enzyme was determined compared to DMSO-treated controls. […] Errors are reported as the 95% confidence interval calculated from experiments collected in technical triplicate.

COC(=O)CC[C@H](NC(=O)[C@H](C)NC(=O)[C@@H](NC(=O)OCc1ccccc1)C(C)C)C(=O)CF [Cpd 1, benzyloxycarbonyl-Val-Ala-Glu(γ-methoxy)-fluoromethylketone] (Cbz-Val-Ala-Glu(OMe)-CH2F)
SW1271 cell viability [1]: no effect on the cell viability; also recorded: neither 1 nor 34 displayed cytotoxic effect | migration of SW1271 cells compared to DMSO control [2]: the same reduction of migratory ability was not observed | IC50 ([3]; IC50 (µM)): 24 µM | Ki [4]: 60 µM | activity versus UCHL3 [5]: no activity

C#Cc1ccc(COC(=O)N[C@H](C(=O)N[C@@H](C)C(=O)N[C@@H](CCC(=O)OC)C(=O)CF)C(C)C)cc1 [Cpd 34]
SW1271 cell viability [1]: no effect on the cell viability; also recorded: did not reduce SW1271 cell viability; also recorded: neither 1 nor 34 displayed cytotoxic effect; also recorded: does not exhibit any cellular toxicity | migration of SW1271 cells compared to DMSO control [2]: significantly reduced the ability of the cells to migrate; also recorded: anti-migratory properties | IC50 ([3]; read-out: IC50): 7.7 µM | fold more active than 1 versus UCHL1 ([3]; IC50 comparison, 3 h preincubation): approximately 3 fold | improvement of KI compared with 1 [4]: greater than 3 fold | kinact [4]: 0.0136 s⁻¹ | kinact/KI [4]: 810 M⁻¹ s⁻¹ | Ki ([4]; reversible binding constant of covalent inhibition, read-out: KI): 16.8 µM | activity versus UCHL3 [5]: no observable activity
